Assay results published in patent EP4011367A1, “COMPOUNDS FOR USE IN THE TREATMENT OF COVID-19” (priority 2020, dated 2022).
Where a name gives a salt, the structure may show the parent alone. Read-outs that look alike come from different tables or passages of the source.

Target: T1, SARS-CoV-2 3CL-Pro (Severe acute respiratory syndrome coronavirus 2, UniProt P0DTD1)
T1 construct: SARS-CoV-2 main protease (3CL-Pro), also termed M-Pro
Experiment: biochemical
Details: for inhibition at 20 µM: read-out: 3CL-Pro Inhibition [%] Primary Screen (20 µM)

[1] = dose response, 8 concentrations, absence of DTT, 60 min pre-incubation at 37 °C, 15 µM substrate, 60 nM enzyme, read-out: IC50

Row | SMILES | inhibition at 20 µM | IC50 (read-out: IC50) | IC50 | IC50 [1]
1 | c1ccc2sc(SNC3CCCCC3)nc2c1 [compound 26, N-(1,3-benzothiazol-2-ylsulfanyl)cyclohexanamine] | 70.1% | 770 nM | – | –
2 | COCCCOc1ccnc(C[S+]([O-])c2nc3ccccc3[nH]2)c1C (centres unmarked) [compound 8, 2-[4-(3-Methoxypropoxy)-3-methylpyridin-2-ylmethylsulfinyl]benzimidazol-1-ide sodium salt] | 94.3% | 740 nM | – | –
3 | CN(C)CCNc1nc2cc(O)ccc2c2c1C(=O)c1ccccc1-2 [compound 38, 6-[2-(Dimethylamino)ethylamino]-3-hydroxy-7H-indeno[2,1-c]quinolin-7-one dihydrochloride] | 96.1% | 2990 nM | – | –
4 | O=[N+]([O-])c1ccc(Sc2cccc[n+]2[O-])c2nonc12 [compound 50, 4-Nitro-1-[(1-oxidopyridin-2-yl)sulfanyl]-2,1,3-benzoxadiazole] | 102% | 100 nM | – | –
5 | O=C1c2c(O)cc(O)cc2O[C@H](c2cc(O)c(O)c(O)c2)[C@H]1O [compound 2, (+)-3(R),5,7-Trihydroxy-2(R)-(3,4,5-trihydroxyphenyl)-3,4-dihydro-2H-1-benzopyran-4-one] | 99.7% | – | – | –
6 | Cc1ccccc1N(C)C(=O)c1ccc([S+]([O-])c2nccs2)c([N+](=O)[O-])c1 (centres unmarked) [compound 84, N-methyl-N-(2-methylphenyl)-3-nitro-4-(1,3-thiazol-2-ylsulfinyl)benzamide] | 96.7% | 1870 nM | – | –
7 | CC(=O)[O-].[Hg+][c]1ccccc1 [compound 42, acetyloxy(phenyl)mercury] | – | – | 10 nM | –
8 | O=c1c2ccccc2[se]n1-c1ccccc1 [compound 10, 2-Phenyl-1,2-benzisoselenazol-3(2H)-one] | 100% | – | – | –
9 | N#CSc1cc(SC#N)c(N)nc1N [compound 66, 2,6-Diaminopyridine-3,5-diyl bis(thiocyanate)] | – | 410 nM | – | –
10 | O=C(CCl)c1ccccc1 [compound 56, 2-chloro-1-phenylethanone] | 99.9% | 190 nM | – | –
11 | Oc1c(I)cc(I)c(O)c1I [compound 65, 2,4,6-Triiodoresorcine] | 99.7% | 330 nM | – | –
12 | Cc1ccc(C)c(-n2sc3cc(F)ccc3c2=O)c1 [compound 11, 2-(2,5-Dimethylphenyl)-6-fluoro-1,2-benzothiazol-3(2H)-one] | 101% | 20 nM | – | –
13 | Oc1cc(CNC(=S)C=Cc2cc(O)c(O)c(Br)c2)cc(O)c1O [compound 68, 3-(3-Bromo-4,5-dihydroxyphenyl)-N-(3,4,5-trihydroxybenzyl)-2-propenethioamide] | 79.4% | – | – | 480 nM
14 | Cn1sc(=O)n(Cc2ccccc2)c1=O [compound 19, 4-Benzyl-2-methyl-1,2,4-thiadiazolidine-3,5-dione] | 101% | 140 nM | – | –
15 | CN1CCN(C2=C(Cl)C(=O)N(c3ccc(Cl)c(Cl)c3)C2=O)CC1 [compound 16, 3-chloro-1-(3,4-dichlorophenyl)-4-(4-methylpiperazin-1-yl)pyrrole-2,5-dione] | 100% | – | – | –
16 | CCCC[C@@H](C=O)NC(=O)[C@H](CC(C)C)NC(=O)OCc1ccccc1 [compound 39, N2-[(Benzyloxy)carbonyl]-N-[(2S)-1-oxohexan-2-yl]-L-leucinamide] | 81% | – | – | –

Row | SMILES | inhibition at 20 µM | IC50 (read-out: IC50) | IC50 | IC50 [1]
17 | COc1ccc2[nH]c([S+]([O-])Cc3ncc(C)c(OC)c3C)nc2n1 (racemic) [compound 9, (±)-5-Methoxy-2-(4-methoxy-3,5-dimethylpyridin-2-ylmethylsulfinyl)imidazo[4,5-b]pyridine] | 69.1% | – | 970 nM | –
18 | CCOc1cc(C(Nc2cc(C)ccn2)c2ccc3cccnc3c2O)ccc1OC (centres unmarked) [compound 63, 7-[(3-Ethoxy-4-methoxyphenyl)[(4-methylpyridin-2-yl)amino]methyl]quinolin-8-ol] | 98.9% | – | 270 nM | –
19 | CCC(C)SSc1ncc[nH]1 (centres unmarked) [compound 28, (2-Imidazolyl)(1-methylpropyl)disulfide] | 100% | – | – | –
20 | O=C(O)c1ccccc1-c1c2cc(Br)c(=O)cc-2oc2[c]([Hg][OH])c(O)c(Br)cc12 [compound 62, [2,7-dibromo-9-(2-carboxyphenyl)-3-hydroxy-6-oxoxanthen-4-yl]mercury;hydrate] | – | – | 240 nM | –
21 | Cc1ccc(-n2sc(=O)n(Cc3ccc(F)cc3)c2=O)cc1 [compound 53, 4-(4-Fluorobenzyl)-2-(4-methylphenyl)-1,2,4-thiadiazolidine-3,5-dione] | – | 150 nM | – | –
22 | CC[C@H](CO)Nc1nc(NCc2ccc(-c3ccccn3)cc2)c2ncn(C(C)C)c2n1 [compound 73, (2R)-2-[[9-propan-2-yl-6-[(4-pyridin-2-ylphenyl)methylamino]purin-2-yl]amino]butan-1-ol] | 99.5% | 840 nM | – | –
23 | CCCCCCNC(=O)n1cc(F)c(=O)[nH]c1=O [compound 55, 5-Fluoro-N-hexyl-2,4-dioxo-1,2,3,4-tetrahydropyrimidine-1-carboxamide] | 101% | – | – | –
24 | Oc1cc2c(cc1O)[C@@H]1c3ccccc3CN[C@H]1CC2 (relative stereo) [compound 77, trans-10,11-Dihydroxy-5,6,6a,7,8,12b-hexahydrobenzo[a]phenanthridine] | – | – | 1050 nM | –
25 | Oc1cc2c(cc1C(c1ccc(C(F)(F)F)cc1)N1CCOCC1)OCO2 (centres unmarked) [compound 70, 6-[morpholin-4-yl-[4-(trifluoromethyl)phenyl]methyl]-1,3-benzodioxol-5-ol] | 81.4% | 540 nM | – | –
26 | CN=c1nc(-c2ccccc2)n(-c2ccccc2)s1 [compound 76, N-(2,3-Diphenyl-2,5-dihydro-1,2,4-thiadiazol-5-ylidene)-N-methylamine] | 99.8% | – | – | 980 nM
27 | CC(C)[C@H](NC(=O)[C@H](CCC(=O)O)NC(=O)[C@H](CC(=O)O)NC(=O)OCc1ccccc1)C(=O)N[C@@H](CC(=O)O)C(=O)CF [compound 40, N-(Benzyloxycarbonyl)-L-aspartyl-L-glutamyl-L-valyl-L-aspartylfluoromethane] | 100% | – | 10 nM | –
28 | Nc1nnc(Sc2ncc([N+](=O)[O-])s2)s1 [compound 44, 5-(5-Nitrothiazol-2-ylsulfanyl)-1,3,4-thiadiazol-2-amine] | 99.9% | 30 nM | – | –
29 | O=C1C=Cc2cc(Br)ccc2C1=O [compound 32, 6-Bromonaphthalene-1,2-dione] | 102% | 40 nM | – | –
30 | O=c1cc(-c2ccc(O)cc2)oc2cc(O)cc(O)c12 [compound 4, 4',5,7-Trihydroxyflavone] | 94.5% | 3020 nM | – | –
31 | COc1cccc(C(=O)CCN[C@@H](C)[C@H](O)c2ccccc2)c1 [compound 89, 3-[2(R)-Hydroxy-1(S)-methyl-2-phenylethylamino]-1-(3-methoxyphenyl)propan-1-one hydrochloride] | 90.8% | 2350 nM | – | –
32 | O=C(O)C(S)C(S)C(=O)O (centres unmarked) [compound 82, 2,3-bis(sulfanyl)butanedioic acid] | 98.9% | – | 1720 nM | –
